From US8101550B2, “Anthranilic acid diamide derivative with hetero-aromatic and hetero-cyclic substituents” (Bayer Cropscience AG, priority 2006, dated 2012)
Like-named read-outs stand apart in the source and are kept apart here.

Experiment: log P determination by HPLC on reverse-phase column (EEC Directive 79/831 Annex V.A8)
Type: physicochemical
Experimental: The log P values stated in the foregoing tables and preparation examples are determined in accordance with EEC Directive 79/831 Annex V.A8 by means of HPLC (High Performance Liquid Chromatography) on a reverse-phase column (C 18). Temperature: 43° C.
The determination by LC-MS in the acidic range takes place at a pH of 2.7 using 0.1% aqueous formic acid and acetonitrile (containing 0.1% formic acid) as eluents; linear gradient from 10% acetonitrile to 95% acetonitrile.
Calibration is with unbranched alkan-2-ones (having 3 to 16 carbon atoms) of known log P value (log P values determined from the retention times by linear interpolation between two successive alkanones).

[1] = HPLC, reverse-phase column (C 18), 43° C., acidic range pH 2.7

Compound | logP | logP (HPLC on reverse-phase column) | further results
Cc1cc(I)cc(C(=O)NC(C)C)c1NC(=O)c1cc(Cn2cc(Cl)c(C(F)(F)C(F)(F)F)n2)nn1-c1ncccc1Cl [I-1-242] | 4.40 | – | –
Cc1cc(C#N)cc(C(=O)NCC#N)c1NC(=O)c1cc(Cn2ccc(C(F)(F)F)n2)nn1-c1ncccc1Cl [I-1-185] | 2.62 | – | –
CNC(=O)c1cc(Cl)cc(Cl)c1NC(=O)c1cc(Cn2nc(C(F)(F)F)nc2C(F)(F)F)nn1C1CCCO1 (stereo not shown) [I-2-5] | – | – | logP [1]: 2.83
Cc1cc(Cl)cc(C(=O)NC(C)C)c1NC(=O)c1cc(Cn2cnc(C(F)(F)C(F)(F)F)n2)nn1-c1ncccc1Cl [I-1-341] | 2.63 | – | –
Cc1cc(I)cc(C(=O)NC(C)C2CC2)c1NC(=O)c1cc(Cn2cc(Cl)c(C(F)(F)C(F)(F)F)n2)nn1-c1ncccc1Cl (stereo not shown) [I-1-287] | 4.69 | – | –
Cc1cc(F)cc(C(=O)NC2C3CCCCC32)c1NC(=O)c1cc(Cn2cc(Cl)c(C(F)(F)C(F)(F)F)n2)nn1-c1ncccc1Cl (stereo not shown) [I-1-199] | 4.55 | – | –
Cc1cc(Cl)cc(C(=O)N[C@@H](C)C[S+](C)[O-])c1NC(=O)c1cc(Cn2nc(C(F)(F)F)nc2C(F)(F)F)nn1-c1ncccc1Cl (stereo partly shown) [I-1-147] | – | 2.95 | –
CNC(=O)c1cc(Cl)cc(C)c1NC(=O)c1cc(Cn2nnc(-c3ccc(C(F)(F)F)cc3)n2)nn1-c1ncccc1Cl [I-1-104] | – | 3.79 | –
CNC(=O)OC[C@H](C)NC(=O)c1cc(Cl)cc(C)c1NC(=O)c1cc(Cn2nc(C(F)(F)F)nc2C(F)(F)F)nn1-c1ncccc1Cl [I-1-78] | – | 3.36 | –
Cc1cc(I)cc(C(=O)NC(C)C)c1NC(=O)c1cc(Cn2nc(C(F)(F)F)cc2C(F)(F)F)nn1-c1ncccc1Cl [I-1-230] | 4.29 | – | –
Cc1cc(Cl)cc(C(=O)NC(C)C)c1NC(=O)c1cc(Cn2nc(C(F)F)c([N+](=O)[O-])c2C(F)F)nn1-c1ncccc1Cl [I-1-258] | 3.32 | – | –
Cc1cc(C#N)cc(C(=O)NCc2ccco2)c1NC(=O)c1cc(Cn2cc(Cl)c(C(F)(F)C(F)(F)F)n2)nn1-c1ncccc1Cl [I-1-208] | 3.90 | – | –
Cc1cc(Cl)cc(C(=O)NCC#N)c1NC(=O)c1cc(Cn2nnc(-c3ccc(C(F)(F)F)cc3)n2)nn1-c1ncccc1Cl [I-1-107] | – | 3.65 | –
CNC(=O)c1cc(Br)cc(C)c1NC(=O)c1cc(Cn2ccc(C(F)(F)F)n2)nn1-c1ncccc1Cl [I-1-80] | – | 2.99 | –
Cc1cc(Cl)cc(C(=O)NCC#N)c1NC(=O)c1cc(Cn2cnc(C(F)(F)C(F)(F)F)n2)nn1-c1ncccc1Cl [I-1-348] | 2.21 | – | –
N#CCNC(=O)c1cc(Cl)cc(Cl)c1NC(=O)c1cc(Cn2nc(C(F)(F)F)cc2C(F)(F)F)nn1-c1ncccc1Cl [I-1-303] | 2.98 | – | –
Cc1cc(F)cc(C(=O)NC2CC2)c1NC(=O)c1cc(Cn2nc(C(F)(F)F)cc2C(F)(F)F)nn1-c1ncc(C(F)(F)F)cc1Cl [I-2-19] | – | – | logP [1]: 4.11
Cc1cc(Cl)cc(C(N)=O)c1NC(=O)c1cc(Cn2cc(C(F)(F)C(F)(F)F)c(C(F)(F)C(F)(F)F)n2)nn1-c1ncccc1Cl [I-1-48] | – | 4.15 | –
CNC(=O)c1cc(Cl)cc(C)c1NC(=O)c1cc(Cn2nc(C)c(Br)c2C)nn1-c1ncccc1Cl [I-1-270] | 2.95 | – | –
Cc1cc(Br)cc(C(=O)NC2CC2)c1NC(=O)c1cc(Cn2ccc(C(F)(F)F)n2)nn1-c1ncccc1Cl [I-1-82] | – | 3.18 | –
Cc1cc(I)cc(C(=O)NC2CC2)c1NC(=O)c1cc(Cn2cc(C(F)(F)C(F)(F)F)c(C(F)(F)C(F)(F)F)n2)nn1-c1ncccc1Cl [I-1-275] | 4.71 | – | –
Cc1cc(Br)cc(C(=O)NCC#N)c1NC(=O)c1cc(Cn2nc(C(F)(F)F)nc2C(F)(F)F)nn1-c1ncccc1Cl [I-1-56] | – | 3.44 | –
Cc1cc(Br)cc(C(=O)NC2CC2)c1NC(=O)c1cc(Cn2nc(C(F)(F)F)cc2C(F)(F)F)nn1-c1ncccc1Cl [I-1-60] | – | 3.91 | –
Cc1cc(Cl)cc(C(N)=O)c1NC(=O)c1cc(Cn2nc(C(F)(F)F)cc2C(F)(F)F)nn1-c1ncc(C(F)(F)F)cc1Cl [I-2-17] | – | – | logP [1]: 4.09
Cc1cc(Cl)cc(C(=O)NC(C)C)c1NC(=O)c1cc(Cn2nc(C(F)(F)F)n(C3CC3)c2=O)nn1-c1ncccc1Cl [I-1-126] | – | 3.18 | –
